Reference: patent publication US20250346569A1, “NEW DERIVATIVES FOR TREATING TRPM3 MEDIATED DISORDERS” (Katholieke Universiteit Leuven, priority 2022, published 2025)

Molecular target: T1, mouse TRPM3α2 (mTRPM3) ion channel (Mus musculus, UniProt J9SQF3)
T1 construct: expressed in transfected cells; host or cells: flip-in HEK293
Assay: Monitoring the TRPM3 ion channel driven Ca2+ uptake (Fluo-4 AM assay)
Assay type: cell-based
Settings: TRPM3 overexpressing flip-in HEK293 cells, channel stimulated with Pregnenolone sulfate (PS) 50 μM
Procedure: Monitoring the TRPM3 ion channel driven Ca^2+ uptake.
In order to monitor the inhibition of the mouse TRPM3α2 (mTRPM3) ion channel by the compounds of the invention, a cellular system making use of an mTRPM3alpha2 or hTRPM3 overexpressing cell line (flip-in HEK293) was used. The TRPM3 channel was stimulated/opened with Pregnenolone sulfate (PS) (50 μM) which results in Ca^2+ influx.
For mTRPM3, the intracellular Ca^2+ was measured with a Calcium responsive dye, Fluor-4 AM ester (Invitrogen). Cells were cultured until a confluence of 80-90%, washed with Versene (Invitrogen) and detached from the surface by a short incubation with 0.05% Trypsin (Invitrogen). The trypsination process was stopped by the addition of complete cell culture medium (DMEM, glutamax,10% FCS,NEAA,Pen-Strep). Cells were collected and resuspended in Krebs buffer without Calcium at RT.
Prior the cell seeding (±2000 cells/well into a black, 384 well plate (Greiner)) the diluted compound was added in the assay plate, together with the PS dissolved in Krebs buffer containing Calcium. […] Directly after cell addition the plates were read on an Envision fluorescence reader (Perkin Elmer) by an Excitation of 485 nm and emission at 535 nm.
Channel inhibition was calculated compared to a non-PS stimulated control versus a condition stimulated with PS (50 μM) with vehicle. The ability of the compounds of the invention to inhibit this activity was determined as: Percentage inhibition=[1−((RFU determined for sample with test compound present−RFU determined for sample with positive control inhibitor) divided by (RFU determined in the presence of vehicle−RFU determined for sample with positive control inhibitor))]*100.
The activities of the Example compounds tested are depicted in the table below. The activity ranges A, B and C refer to IC50 values in the Fluo-4 AM assay as follows: “A”: IC50<1 μM; “B”: 1 μM≤IC50≤20 μM and “C”: IC50>20 μM

T1 sequence (J9SQF3 1-1709 isoform J9SQF3-12): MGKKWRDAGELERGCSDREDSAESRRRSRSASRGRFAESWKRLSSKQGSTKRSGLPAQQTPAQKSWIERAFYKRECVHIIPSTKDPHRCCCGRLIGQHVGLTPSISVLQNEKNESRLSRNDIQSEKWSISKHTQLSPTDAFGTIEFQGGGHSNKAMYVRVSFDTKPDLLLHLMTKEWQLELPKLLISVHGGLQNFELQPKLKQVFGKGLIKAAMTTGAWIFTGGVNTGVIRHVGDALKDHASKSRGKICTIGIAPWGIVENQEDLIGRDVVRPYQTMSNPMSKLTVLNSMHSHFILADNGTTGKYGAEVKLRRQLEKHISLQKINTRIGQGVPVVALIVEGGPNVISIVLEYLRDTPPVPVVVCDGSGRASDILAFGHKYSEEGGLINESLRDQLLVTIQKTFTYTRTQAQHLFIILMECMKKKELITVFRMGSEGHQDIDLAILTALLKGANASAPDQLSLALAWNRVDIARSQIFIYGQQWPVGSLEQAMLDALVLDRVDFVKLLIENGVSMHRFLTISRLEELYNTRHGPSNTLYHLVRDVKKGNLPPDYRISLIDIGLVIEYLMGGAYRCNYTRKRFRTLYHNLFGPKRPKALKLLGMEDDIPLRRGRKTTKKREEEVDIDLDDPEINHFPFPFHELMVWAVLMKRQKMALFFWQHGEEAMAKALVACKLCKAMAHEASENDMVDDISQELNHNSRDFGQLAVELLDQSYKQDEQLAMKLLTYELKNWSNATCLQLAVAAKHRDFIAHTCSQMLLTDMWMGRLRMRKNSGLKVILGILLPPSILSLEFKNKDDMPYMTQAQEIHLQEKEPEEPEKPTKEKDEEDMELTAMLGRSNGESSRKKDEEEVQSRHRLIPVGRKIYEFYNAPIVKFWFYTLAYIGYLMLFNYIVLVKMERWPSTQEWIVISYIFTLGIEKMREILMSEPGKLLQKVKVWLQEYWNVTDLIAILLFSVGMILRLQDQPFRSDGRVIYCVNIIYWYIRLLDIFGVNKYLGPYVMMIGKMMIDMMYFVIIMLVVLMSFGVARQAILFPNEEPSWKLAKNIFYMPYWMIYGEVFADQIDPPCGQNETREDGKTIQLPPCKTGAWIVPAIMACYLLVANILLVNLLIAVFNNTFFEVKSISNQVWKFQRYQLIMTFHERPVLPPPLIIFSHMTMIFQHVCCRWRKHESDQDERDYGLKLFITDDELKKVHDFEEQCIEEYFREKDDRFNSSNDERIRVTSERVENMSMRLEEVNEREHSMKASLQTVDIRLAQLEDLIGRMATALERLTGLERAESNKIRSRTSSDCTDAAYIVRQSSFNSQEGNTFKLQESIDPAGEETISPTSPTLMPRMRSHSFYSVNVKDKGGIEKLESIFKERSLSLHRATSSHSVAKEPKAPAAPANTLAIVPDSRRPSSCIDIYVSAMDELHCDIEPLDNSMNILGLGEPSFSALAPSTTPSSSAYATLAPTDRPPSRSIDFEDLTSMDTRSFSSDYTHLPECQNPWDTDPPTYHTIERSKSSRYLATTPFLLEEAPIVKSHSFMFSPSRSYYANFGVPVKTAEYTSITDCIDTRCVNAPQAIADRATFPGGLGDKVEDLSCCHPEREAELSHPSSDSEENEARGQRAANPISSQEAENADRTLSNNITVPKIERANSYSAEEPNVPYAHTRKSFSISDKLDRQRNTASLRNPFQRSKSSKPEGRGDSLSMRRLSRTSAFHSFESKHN

IC50 [nM]	SMILES
< 1000	Cc1sc2ccc(OCC3CC3)cc2c1C(=O)NC(C)(C)C(N)=O [Cpd 061, 2-{[5-(cyclopropylmethoxy)-2-methyl-1-benzothiophen-3-yl]formamido}-2-methylpropanamide]
< 1000	Cc1sc2ccc(OCc3ccccc3)cc2c1C(=O)NC1CN(C)CC1(F)F (stereo not drawn) [Cpd 120, 5-(benzyloxy)-N-(4,4-difluoro-1-methylpyrrolidin-3-yl)-2-methyl-1-benzothiophene-3-carboxamide]
< 1000	Cc1ncc(COc2ccc3sc(C)c(C(=O)NC4(C(N)=O)COC4)c3c2)s1 [Cpd 026, 3-{2-methyl-5-[(2-methyl-1,3-thiazol-5-yl)methoxy]-1-benzothiophene-3-amido}oxetane-3-carboxamide]
< 1000	Cc1ncsc1COc1ccc2sc(C)c(C(=O)NC3CCNC3=O)c2c1 (stereo not drawn) [Cpd 041, 2-methyl-5-[(4-methyl-1,3-thiazol-5-yl)methoxy]-N-(2-oxopyrrolidin-3-yl)-1-benzothiophene-3-carboxamide]
< 1000	Cc1sc2ccc(OCc3cccnc3C(F)(F)F)cc2c1C(=O)N[C@H](CO)C(N)=O [Cpd 058, (2R)-3-hydroxy-2-[(2-methyl-5-{[2-(trifluoromethyl)pyridin-3-yl]methoxy}-1-benzothiophen-3-yl)formamido]propanamide]
> 20000	CC(C)(O)CNC(=O)c1c(C(F)F)sc2ccc(OCc3ccccc3)cc12 [Cpd 014, 5-(benzyloxy)-2-(difluoromethyl)-N-(2-hydroxy-2-methylpropyl)-1-benzothiophene-3-carboxamide]
< 1000	Cc1sc2ccc(OCc3cccnc3C(F)(F)F)cc2c1C(=O)NC1CCN(C)CC1 [Cpd 129, 2-methyl-N-(1-methylpiperidin-4-yl)-5-{[2-(trifluoromethyl)pyridin-3-yl]methoxy}-1-benzothiophene-3-carboxamide]
1000 to 20000	Cc1ncc(COc2ccc3sc(C)c(C(=O)NC4(CO)CCOCC4)c3c2)s1 [Cpd 024, N-[4-(hydroxymethyl)oxan-4-yl]-2-methyl-5-[(2-methyl-1,3-thiazol-5-yl)methoxy]-1-benzothiophene-3-carboxamide]
< 1000	Cc1sc2ccc(OCc3ccccc3F)cc2c1C(=O)N[C@H]1CCN(CCO)C1=O [Cpd 059, 5-[(2-fluorophenyl)methoxy]-N-[(3S)-1-(2-hydroxyethyl)-2-oxopyrrolidin-3-yl]-2-methyl-1-benzothiophene-3-carboxamide]
< 1000	Cc1ncc(COc2ccc3sc(C)c(C(=O)N[C@@H](C)C(N)=O)c3c2)s1 [Cpd 011, (2S)-2-({2-methyl-5-[(2-methyl-1,3-thiazol-5-yl)methoxy]-1-benzothiophen-3-yl}formamido)propanamide]
< 1000	Cc1sc2ccc(OCc3ccccc3F)cc2c1C(=O)NC1CCNC1=O (stereo not drawn) [Cpd 093, 5-[(2-fluorophenyl)methoxy]-2-methyl-N-(2-oxopyrrolidin-3-yl)-1-benzothiophene-3-carboxamide]
> 20000	Cc1sc2ccc(OCc3ccccc3)cc2c1C(=O)NC1CC(F)(F)C1 [Cpd 089, 5-(benzyloxy)-N-(3,3-difluorocyclobutyl)-2-methyl-1-benzothiophene-3-carboxamide]
< 1000	Cc1sc2ccc(OCc3ccccc3F)cc2c1C(=O)NC1(C(N)=O)COC1 [Cpd 087, 3-{5-[(2-fluorophenyl)methoxy]-2-methyl-1-benzothiophene-3-amido}oxetane-3-carboxamide]
> 20000	O=C(NC1(CO)CCOCC1)c1c(C(F)F)sc2ccc(OCc3ccccc3)cc12 [Cpd 152, 5-(benzyloxy)-2-(difluoromethyl)-N-[4-(hydroxymethyl)oxan-4-yl]-1-benzothiophene-3-carboxamide]
< 1000	Cc1ncc(COc2ccc3sc(C)c(C(=O)NC4(CO)COC4)c3c2)s1 [Cpd 025, N-[3-(hydroxymethyl)oxetan-3-yl]-2-methyl-5-[(2-methyl-1,3-thiazol-5-yl)methoxy]-1-benzothiophene-3-carboxamide]
< 1000	Cc1sc2ccc(OCc3cccnc3C(F)(F)F)cc2c1C(=O)NCc1cccc(O)n1 [Cpd 105, N-[(6-hydroxypyridin-2-yl)methyl]-2-methyl-5-{[2-(trifluoromethyl)pyridin-3-yl]methoxy}-1-benzothiophene-3-carboxamide]
< 1000	Cc1sc2ccc(OCc3ccccn3)cc2c1C(=O)N[C@H](C)C(N)=O [Cpd 003, (2R)-2-({2-methyl-5-[(pyridin-2-yl)methoxy]-1-benzothiophen-3-yl}formamido)propanamide]

IC50 [nM]	SMILES
< 1000	Cc1ncsc1COc1ccc2sc(C)c(C(=O)NC(C)(CO)CO)c2c1 [Cpd 032, N-(1,3-dihydroxy-2-methylpropan-2-yl)-2-methyl-5-[(4-methyl-1,3-thiazol-5-yl)methoxy]-1-benzothiophene-3-carboxamide]
< 1000	Cc1ncsc1COc1ccc2sc(C)c(C(=O)NC3CCN(C)C3)c2c1 (stereo not drawn) [Cpd 126, 2-methyl-5-[(4-methyl-1,3-thiazol-5-yl)methoxy]-N-(1-methylpyrrolidin-3-yl)-1-benzothiophene-3-carboxamide]
< 1000	Cc1sc2ccc(OCc3cccnc3C(F)(F)F)cc2c1C(=O)NCC(C)(C)O [Cpd 101, N-(2-hydroxy-2-methylpropyl)-2-methyl-5-{[2-(trifluoromethyl)pyridin-3-yl]methoxy}-1-benzothiophene-3-carboxamide]
< 1000	Cc1sc2ccc(OCc3ccccc3F)cc2c1C(=O)NC1(C(N)=O)CCOCC1 [Cpd 070, 4-{5-[(2-fluorophenyl)methoxy]-2-methyl-1-benzothiophene-3-amido}oxane-4-carboxamide]
1000 to 20000	COc1ncccc1COc1ccc2sc(C)c(C(=O)NC3(CO)CC3)c2c1 [Cpd 142, N-[1-(hydroxymethyl)cyclopropyl]-5-[(2-methoxypyridin-3-yl)methoxy]-2-methyl-1-benzothiophene-3-carboxamide]
1000 to 20000	CN1CCC(NC(=O)c2c(C(F)F)sc3ccc(OCc4ccccc4)cc23)C1 (stereo not drawn) [Cpd 124, 5-(benzyloxy)-2-(difluoromethyl)-N-(1-methylpyrrolidin-3-yl)-1-benzothiophene-3-carboxamide]
1000 to 20000	Cc1sc2ccc(OCc3ccccc3)cc2c1C(=O)NC1(CO)CC1 [Cpd 073, 5-(benzyloxy)-N-[1-(hydroxymethyl)cyclopropyl]-2-methyl-1-benzothiophene-3-carboxamide]
< 1000	CNC(=O)C1(NC(=O)c2c(C)sc3ccc(OCc4cnc(C)s4)cc23)CCOC1 (single isomer, unassigned) [Cpd 133 - En2, N-methyl-3-{2-methyl-5-[(2-methyl-1,3-thiazol-5-yl)methoxy]-1-benzothiophene-3-amido}oxolane-3-carboxamide]
< 1000	Cc1sc2ccc(OCc3cccnc3C(F)(F)F)cc2c1C(=O)NC1CCN(C)C1 (stereo not drawn) [Cpd 125, 2-methyl-N-(1-methylpyrrolidin-3-yl)-5-{[2-(trifluoromethyl)pyridin-3-yl]methoxy}-1-benzothiophene-3-carboxamide]
< 1000	Cc1sc2ccc(OCc3ccccc3)cc2c1C(=O)NC1CCN(C)C1 (stereo not drawn) [Cpd 123, 5-(benzyloxy)-2-methyl-N-(1-methylpyrrolidin-3-yl)-1-benzothiophene-3-carboxamide]
< 1000	Cc1ncsc1COc1ccc2sc(C)c(C(=O)NC3(CO)CC3)c2c1 [Cpd 034, N-[1-(hydroxymethyl)cyclopropyl]-2-methyl-5-[(4-methyl-1,3-thiazol-5-yl)methoxy]-1-benzothiophene-3-carboxamide]
1000 to 20000	Cc1ncsc1COc1ccc2sc(C)c(C(=O)NCCN3CCOC3=O)c2c1 [Cpd 048, 2-methyl-5-[(4-methyl-1,3-thiazol-5-yl)methoxy]-N-[2-(2-oxo-1,3-oxazolidin-3-yl)ethyl]-1-benzothiophene-3-carboxamide]
< 1000	Cc1ncsc1COc1ccc2sc(C)c(C(=O)N[C@H]3CCN(CCO)C3=O)c2c1 [Cpd 030, N-[(3S)-1-(2-hydroxyethyl)-2-oxopyrrolidin-3-yl]-2-methyl-5-[(4-methyl-1,3-thiazol-5-yl)methoxy]-1-benzothiophene-3-carboxamide]
1000 to 20000	CN(C)C1(CNC(=O)c2c(C(F)F)sc3ccc(OCc4ccccc4)cc23)CCCC1 [Cpd 112, 5-(benzyloxy)-2-(difluoromethyl)-N-{[1-(dimethylamino)cyclopentyl]methyl}-1-benzothiophene-3-carboxamide]
< 1000	Cc1sc2ccc(OCc3cccnc3C(F)(F)F)cc2c1C(=O)N[C@H](C)C(N)=O [Cpd 004, (2R)-2-[(2-methyl-5-{[2-(trifluoromethyl)pyridin-3-yl]methoxy}-1-benzothiophen-3-yl)formamido]propanamide]
< 1000	Cc1sc2ccc(OCc3cccnc3C(F)(F)F)cc2c1C(=O)N[C@@H](C)C(N)=O [Cpd 009, (2S)-2-[(2-methyl-5-{[2-(trifluoromethyl)pyridin-3-yl]methoxy}-1-benzothiophen-3-yl)formamido]propanamide]
